Test results from patent publication US20240125768A1, “METHODS FOR MODULATING A SRC-1 CONDENSATE” (ETERN BIOPHARMA (SHANGHAI) CO., LTD., priority 2021, published 2024).

Columns and labels:
[1] = target: T1, SRC-1 phase separation (Homo sapiens, UniProt Q15788); assay: High content image of mScarlet-SRC-1 puncta in H1299 cells; type: cell-based; conditions: 20 μM
T1 construct: expressed in transfected cells; host or cells: H1299
Experimental: FIG. 7Q illustrates quantification result of high content image data for mScarlet-SRC-1 puncta in H1299 cells treated w/o 20 μM EVG. ***p<0.001.
Eight hours after transfection, H1299 cells expressing mScarlet-SRC-1 were seeded in 24-well glass bottom plate (Cellvis P24-1.5H-N) and EVG was added two hours later. Images were obtained with the Operetta CLSTM high-content cell imaging analysis system (PerkinElmer Inc., Waltham, MA, USA). The 63× objective lens was applied in each condition. Data was analyzed by images collected from over 100 representative fields in each group. The spots quantification was performed based on the area and intensity of the spots through mScarlet channel. GraphPad Prism is used to plot and analyze the high content image results.

[2] = system: RNA polymerase II phosphorylated at Ser 5 (CTD); assay: Immunofluorescence of RNA pol II-S5P at TEAD puncta in H1299 cells; type: cell-based; conditions: H1299 cells co-expressing YAP5SA, TEAD4-mTagBFP, mNeoGreen-SRC1; 20 μM
Experimental: FIG. 7 M illustrates immunofluorescence staining with anti-H3K27ac (red,top) and anti-RNA pol II-S5P (red, bottom) in H1299 cells co-expressing YAP5SA, TEAD4-mTagBFP(blue) and mNeoGreen-SRC1(green) treated with 20 μM EVG. EVG impaired the SRC-1 LLPS. Transcription active markerH3K27ac and active RNA polymerase II phosphorylated at Ser 5 of CTD were not enriched in SRC-1 condensates. Scale bar, 5 μm.
Cells were fixed with 4% PFA for 15 minutes at room temperature. Cells were subsequently washed with PBS (3×3 min) and blocked in PBS/BSA (3%)/Triton X-100 (0.3%) at room temperature for 60 minutes. Cells were rinsed in PBS and incubated with anti-H3K27ac (ab4729, Abcam, 1:100), anti-RNA Pol II-S5P antibody (#04-1572, Millipore, 1:200) in PBS/BSA (1%) overnight at 4° C. Cells were washed with PBST (1×PBS+Tween20 0.2%, 3×5 min) and incubated with the secondary antibody for 1 hours at room temperature. After washing with PBST(3×5 min), cells were stained with DAPI.

[3] = system: YAP; assay: YAP reporter cell-based screen of FDA-approved drugs (luciferase, qPCR validation); conditions: YAP reporter cell-based screen in a library of FDA-approved drugs
Source text: FIG. 7B illustrates high-throughput screening results. 449 FDA-approved compounds were screened and evaluated by the z-factor of cell viability and luciferase activity (Blue dots: screened compounds; red dots: positive compounds). The screening criteria is luciferase z-factor <−4 and cell viability >−4. (Positive compound, PC: Fedratinib)
FIG. 7C illustrates qPCR analysis examining the expression of YAP-targeted CTGF and CYR61 was used to validate candidate positive compounds from the screening. Error bars show mean±s.e.m. (n=2).
FIG. 7D illustrates the qPCR analysis of YAP target genes in SF268 cells treated with DMSO or 20 µM EVG for 24 h. Error bars show mean±s.e.m. (n=3).
YAP binding sites were cloned into the NheI and HindIII sites of the pGL4.76 basic vector (Promega) containing heat shock basal promoter. Luciferase activity was measured using the Renilla-Glo® Luciferase Assay System (Promega). Cell viability was measured using CellTiter-Glo® One Solution Assay (Promega). Relative luciferase activity=luciferase activity/cell viability.
Cells were treated with compounds for indicated periods, then total RNAs were extracted with TRIzol™ Reagent (15596018, Invitrogen) and reverse-transcripted using the High efficient cDNA synthesis master mix (FSQ-301, TOYOBO). Quantitative RT-PCR was performed with […] SYBR® Premix Ex Taq™ (RR420, Takara). […]

[4] = system: SRC-1; assay: Biolayer interferometry (BLI); type: binding; conditions: biotin labeled EVG on streptavidin biosensors, purified SRC-1 protein
Experimental: FIG. 7R illustrates bio-layer interferometry (BLI) assays were performed with purified SRC-1 protein and EVG. Biotin labeled EVG was immobilized on the streptavidin biosensors and dipped into wells containing increasing concentrations of SRC-1 protein.
The binding between EVG and SRC1 was examined using BLI Octet RED96 (ForteEio Inc., Menlo Park, CA). Streptavidin biosensors (ForteBio Inc.) were pre-soaked (30 min) in assay buffer (20 mM TrisHCl pH8.0, 150 mM NaCl and 1% DMSO), then coated in an assay buffer containing 100 uM EVG-biotin for 7 min. As a control, sensors were incubated in an assay buffer containing 100 uM Biocytin, followed by a 6 min wash with assay buffer containing 1% BSA and 0.1% Tween20. Indicated concentrations of truncated SRC1protein ([…], 0 μg/ml) were diluted in assay buffer containing 1% BSA/0.1% Tween20 and flowed through biosensors coated with Bio-EVG or biocytin for 5 min. A 5 min dissociation was followed. Data was analyzed using OctetRED analysis software.

T1 sequence (Q15788 whole entry): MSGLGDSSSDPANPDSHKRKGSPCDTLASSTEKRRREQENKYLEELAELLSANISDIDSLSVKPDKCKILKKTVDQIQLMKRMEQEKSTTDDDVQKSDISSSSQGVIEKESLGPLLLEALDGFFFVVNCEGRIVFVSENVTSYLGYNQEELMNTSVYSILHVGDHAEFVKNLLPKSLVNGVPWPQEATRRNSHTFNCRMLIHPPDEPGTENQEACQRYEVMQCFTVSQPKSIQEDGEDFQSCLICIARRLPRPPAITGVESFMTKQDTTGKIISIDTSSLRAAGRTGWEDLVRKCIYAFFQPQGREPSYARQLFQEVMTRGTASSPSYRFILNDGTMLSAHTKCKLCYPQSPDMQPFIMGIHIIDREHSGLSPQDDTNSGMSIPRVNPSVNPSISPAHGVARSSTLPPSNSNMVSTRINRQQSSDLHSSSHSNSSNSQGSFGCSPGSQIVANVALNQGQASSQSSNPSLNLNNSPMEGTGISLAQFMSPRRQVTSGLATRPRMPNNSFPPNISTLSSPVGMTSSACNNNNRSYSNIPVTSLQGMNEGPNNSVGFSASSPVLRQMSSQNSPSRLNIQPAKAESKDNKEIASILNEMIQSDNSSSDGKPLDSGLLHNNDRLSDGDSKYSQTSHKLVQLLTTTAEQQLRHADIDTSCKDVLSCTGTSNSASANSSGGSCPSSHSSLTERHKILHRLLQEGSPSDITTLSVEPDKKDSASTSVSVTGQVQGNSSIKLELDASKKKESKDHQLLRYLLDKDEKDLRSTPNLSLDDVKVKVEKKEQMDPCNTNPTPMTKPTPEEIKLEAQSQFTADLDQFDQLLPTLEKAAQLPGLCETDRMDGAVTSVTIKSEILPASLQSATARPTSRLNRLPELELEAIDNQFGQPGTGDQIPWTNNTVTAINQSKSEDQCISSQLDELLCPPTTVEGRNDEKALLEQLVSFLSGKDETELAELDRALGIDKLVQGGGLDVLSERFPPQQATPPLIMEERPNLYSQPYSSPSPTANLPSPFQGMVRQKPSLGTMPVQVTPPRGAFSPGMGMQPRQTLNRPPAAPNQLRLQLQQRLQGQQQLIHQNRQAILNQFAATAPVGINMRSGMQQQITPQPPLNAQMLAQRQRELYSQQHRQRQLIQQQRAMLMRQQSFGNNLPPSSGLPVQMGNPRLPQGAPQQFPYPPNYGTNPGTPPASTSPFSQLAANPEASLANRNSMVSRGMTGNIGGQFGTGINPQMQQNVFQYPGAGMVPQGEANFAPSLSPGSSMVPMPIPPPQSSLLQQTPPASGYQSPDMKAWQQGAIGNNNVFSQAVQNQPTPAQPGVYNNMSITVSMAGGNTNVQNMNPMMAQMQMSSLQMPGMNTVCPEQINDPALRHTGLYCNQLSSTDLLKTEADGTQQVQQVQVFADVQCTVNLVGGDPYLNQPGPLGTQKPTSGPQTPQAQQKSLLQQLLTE

Compound: COc1cc2c(cc1Cc1cccc(Cl)c1F)c(=O)c(C(=O)O)cn2[C@H](CO)C(C)C [EVG, 6-[(3-chloro-2-fluorophenyl)methyl]-1-[(2S)-1-hydroxy-3-methylbutan-2-yl]-7-methoxy-4-oxoquinoline-3-carboxylic acid]
- SRC-1 phase separation, high content image (mScarlet-SRC-1 puncta) [1]: inhibitory effects
- RNA polymerase II phosphorylated at Ser 5 (CTD) at TEAD puncta [2]: no effect
- YAP activity [3]: suppress YAP activity
- binding to SRC-1 (BLI) [4]: directly binds
